Results taken from patent US11679123B2, “N-acylated hyaluronic acid for hyperuricemia and gouty arthritis” (Queen's University at Kingston, priority 2018, dated 2023).

Legend:
[1] = test system: rats with MSU-induced acute gout; assay: MSU crystal-induced acute gout in rats: ankle swelling ratio; format: in vivo, Wistar rats; conditions: P<0.01; for ankle swelling in comparison with the MSU treated group: at 4 h, 12 h and 48 h
Experimental: Male Wistar rats (n=50, 8 weeks: 160-200 g) were purchased from Liaoning Changsheng Biotechnology Company Ltd, Jilin, China (SCXK (Liao)-2015-0001). These rats were housed in plastic cages and maintained on a 12-h light/12-h dark cycle (lights on 7:00-19:00 h) under standard laboratory conditions of 55% relative humidity and at 23° C.±1° C. They were given standard chow (Liaoning Changsheng Biotechnology Company Ltd, Jilin, China) and tap water ad libitum. All experimental procedures were approved by the Animal Ethics Committee of Jilin University (Reference NO. 201605).
An experimental model of MSU-induced gouty arthritis was used in order to evaluate the anti-inflammatory activities of BHA. Rats were randomly divided into five groups (n=10), include a control group (NC), a model group (MC), a 0.3 mg/kg colchicine group (COL), a 10 μg BHA group (10BHA) and a 50 μg BHA group (50BHA). MSU crystals were suspended in 0.9% sterile saline (30 mg/mL) prior to use. The colchicine group rats were orally administrated colchicine (0.3 mg/kg) for 8 days, and all rats except for the control group were injected with 3 mg of MSU (Sigma, USA) at the 6th day into the right ankle synovial space 1 h after gavage feeding. Meanwhile a turbid sample of MSU mixed with 100 μg of BHA or 500 μg of BHA per mL of solution for 10BHA rats or 50BHA rats. At the 8th day, 1 h after the administration of the final agents, blood was sampled from the caudal veins of the rats and the right ankle joints of the rats were collected and fixed in 4% paraformaldehyde. Serum was separated and stored at −80° C. prior to analysis (FIG. 2A, E).
The right ankle circumferences of all rats at 0, 4, 12, 24 and 48 h after MSU injection were measured. The swelling ratio (%) was used to evaluate the gouty arthritis and calculated according to the change of the circumference via the formula: Swelling ratio (%)=(Ct−C0)/C0, wherein, Ct represented the circumference at time t (in h) and C0 represented the circumference at 0 h.

[2] = test system: inflammatory cell infiltration in the synovium; assay: Histopathological assessment of ankle joint synovium (H&E) in MSU crystal-injected rats; format: in vivo, Wistar rats
Experimental: In one study, a histopathological assessment was conducted of synovium in ankle joints of rats after H&E staining. The right ankles of […] were excised and fixed in 4% paraformaldehyde, and subsequently decalcified using 10% ethylenediaminetetraacetic acid. They were then dehydrated via processing in alcohol/xylene mixtures with different proportions and concentrations. The histological sections were stained with hematoxylin and eosin. The histopathological changes of the joint synovium were assessed for the degree of inflammatory cell infiltrate, by an experienced histopathologist. Microscopy at magnifications of 40×, 100×, 200× and 400× were investigated for typical areas for each of the five groups.
The right ankles of rats were collected and fixed in 4% paraformaldehyde, and subsequently decalcified using 10% ethylenediaminetetraacetic acid. They were then dehydrated by processing in alcohol/xylene mixtures with different proportions and concentrations. The histological sections were later stained with hematoxylin and eosin for observation under an optical microscope (200×). The histopathological changes were analyzed with regard to deformaties of the joint synovium and infiltration by inflammatory cells into the ankle.

hyperuricemic mice = assay: Serum UA in OXO- and yeast extract-induced hyperuricemic mice; format: in vivo, Balb/C mice; conditions: BHA (10 μg and 50 μg intraperitoneal), P<0.05
Experimental: Male Balb/C mice (n=50, 8 weeks: 18-22 g), purchased from Yisi Experimental Animal Technology Company Ltd, Jilin, China (SCXK (Ji)-2016-0003). These mice were housed in plastic cages and maintained on a 12-h light/12-h dark cycle (lights on 7:00-19:00 h) under standard laboratory conditions of 55% relative humidity and 23±1° C. They were given standard feed and tap water ad libitum. All experimental procedures were approved by the Animal Ethics Committee of Jilin University (Reference NO. 201605).
Due to the presence of uricase in mice, a hyperuricemic mouse model was established by using uricase inhibitor and large amounts of purine. Mice were randomly divided into five groups (n=10), including the control group (NC), model group (MC), 20 mg/kg of AL (Shimao Tianjie Pharmaceutical Co. Ltd, Jiangsu, China) group, 10 μg BHA group (10BHA) and 50 μg BHA group (50BHA). Oral administration of AL and intraperitoneal injection of BHA were administered according to the required dose, and all mice were gavage fed 20 g/kg yeast extract powder 12 h prior to the administration of AL and BHA except for NC mice for 8 days. […]
The serum UA concentrations and XO levels in the serum and liver were determined with a standard diagnostic kit (MAK077, MAK078 Sigma, USA) according to the manufacturer's instructions.

[3] = test system: creatinine (Cr) and blood urea nitrogen (BUN); assay: Cr and urea nitrogen in serum and liver of hyperuricemic mice (renal function); format: in vivo, Balb/C mice; conditions: for lowering of Cr in the serum / lowering of urea nitrogen in the liver: BHA, P<0.05
Experimental: Due to the presence of uricase in mice, a hyperuricemic mouse model was established by using uricase inhibitor and large amounts of purine. Mice were randomly divided into five groups (n=10), including the control group (NC), model group (MC), 20 mg/kg of AL (Shimao Tianjie Pharmaceutical Co. Ltd, Jiangsu, China) group, 10 μg BHA group (10BHA) and 50 μg BHA group (50BHA). Oral administration of AL and intraperitoneal injection of BHA were administered according to the required dose, and all mice were gavage fed 20 g/kg yeast extract powder 12 h prior to the administration of AL and BHA except for NC mice for 8 days. From the 6th to 8th day, 1-h prior to AL and BHA administration, 300 mg/kg of OXO (Sigma, USA) was intraperitoneally injected to all of the mice except those in the control group. At 1 h after the final drug administration, blood was sampled from caudal veins of the mice, serum was separated and their livers were quickly collected (FIG. 3A, E). All samples were stored at −80° C. until assay measurements were performed.
The levels of reactive oxygen species (ROS, 43355), malondialdehyde (MDA, 43124) glutathione peroxidase (GSH-Px, 43390), superoxide dismutase (SOD, 43125), catalase (CAT, 43356), creatinine (Cr, 43353) and blood urea nitrogen (BUN, 43352) in the serum and livers of mice were determined using ELISA Kits (Yuanye Bio-Technology Co. Ltd, Shanghai, China) according to the manufacturer's instructions.

[4] = test system: stimulated human cultured macrophages; conditions: THP-1, BHA of reduced molecular weight; cited from earlier work

## N-butyrylated HA [BHA]
[1]; 10 μg BHA, at 12 h (best suppression)
  swelling ratio reduction: 11.0%
[1]; 50 μg BHA, at 48 h (best suppression)
  swelling ratio reduction: 9.5%
[1]; BHA 10 μg
  ankle swelling in comparison with the MSU treated group: suppressed the ankle swelling
[1]; BHA 50 μg
  ankle swelling in comparison with the MSU treated group: suppressed the ankle swelling
[2]; 10 μg of BHA, MSU crystal-injected rats, H&E
  pathological changes (inflammatory cell infiltration) in synovium: partially prevented the pathological changes
[2]; higher dose BHA (50BHA, 50 μg)
  attenuation of inflammatory cell infiltration in synovium: not as effective as the 10BHA dose
Hyperuricemic mice
  serum UA levels: significantly suppressed serum UA levels
[3]; 10 μg BHA, P<0.01
  lowering of Cr in the liver: 8.14%
[3]; second value listed (10 μg)
  lowering of Cr in the serum: 8.21%
  lowering of urea nitrogen in the liver: 11.65%
[3]; third value listed (50 μg)
  lowering of Cr in the serum: 12.02%
  lowering of urea nitrogen in the liver: 12.81%
[4]
  production of pro-inflammatory cytokines (IL-1, IL-6, IL-8, TNF-α): decreased production of pro-inflammatory cytokines significantly
